# Patent US20030008273A1, “Methods for increasing the survival of neuronal cells” (priority 2001, published 2003)
# “Also recorded” adds a separate entry of the source.
# Experiments:
# [1] = test system: primary ventral mesencephalic cultures; test: Primary ventral mesencephalic cultures, count of NeuN-positive cells; type: cell-based, rat
# Procedure: (§1) Ventral midbrain, cortex and hippocampus from rat embryos at stage E14.5-15.5 were dissected, mechanically dissociated and plated on poly-D-lysine coated 12 or 24 well plates in serum free media (N2, consisting of a 1:1 mixture of MEM (+15 mM HEPES buffer) and Ham's F12 medium (+6 mg/ml glucose, 1 mg/ml bovine serum albumin, 5 ug/ml insulin, 100 ug/ml transferrin, 60 μM putrescine, 20 nM progesterone, 30 nM selenium and 1 mM glutamine). Ligands (all-trans RA, 9-cis retinoic acid, LG268, docosahexanoic acid (DHA), SR11237, TTNPB, and LB1208; stock solutions in DMSO) were diluted to working concentrations in N2, added to cells and incubated 3-5 days. GDNF was dissolved in phosphate-buffered saline (PBS) containing 1 mg/ml bovine serum albumin. These experiments were conducted in triplicate. Paraformaldehyde fixed cultures were then incubated over night with anti-tyrosine hydroxylase (TH) (1:1000, Pel-Freez), anti-NeuN (1:200, Chemicon) or anti-Nurr1 (1: 10,000, Santa Cruz) antibodies in PBS containing 0.5% (TH and NeuN) or 10% (Nurr1) fetal calf serum and 0.3% triton X100. Following rinses, cultures were incubated with biotinylated secondary antibody followed by detection of immuno-staining using the ABC immunoperoxidase kit from Vector. Cells were counted using brightfield microscopy (Nikon Eclipse EM 300). […]
# [2] = test system: primary ventral midbrain cells (dopamine secreting cells); test: Primary ventral midbrain cultures, count of TH-immunoreactive (dopamine) cells; type: cell-based, rat; conditions: for number of TH-immunoreactive (IR) cells: ligand alone, increasing concentrations, 3-5 days
# Procedure: (§2) Ventral midbrains from rat embryos at stage E15.5 were dissected, mechanically dissociated, and plated on poly-D-lysine coated 12 well plates in serum-free medium (N2; consisting of a 1:1 mixture of F12 and MEM with 5 μg/ml insulin, 100 μg/ml transferrin, 60 μM putrescine, 20 nM progesterone, 30 nM selenium, 6 mg/ml glucose and 1 mg/ml bovine serum albumin).
# Ventral midbrain, cortex and hippocampus from rat embryos at stage E14.5-15.5 were dissected, mechanically dissociated and plated on poly-D-lysine coated 12 or 24 well plates in serum free media (N2, consisting of a 1:1 mixture of MEM (+15 mM HEPES buffer) and Ham's F12 medium (+6 mg/ml glucose, 1 mg/ml bovine serum albumin, 5 ug/ml insulin, 100 ug/ml transferrin, 60 μM putrescine, 20 nM progesterone, 30 nM selenium and 1 mM glutamine). Ligands (all-trans RA, 9-cis retinoic acid, LG268, docosahexanoic acid (DHA), SR11237, TTNPB, and LB1208; stock solutions in DMSO) were diluted to working concentrations in N2, added to cells and incubated 3-5 days. GDNF was dissolved in phosphate-buffered saline (PBS) containing 1 mg/ml bovine serum albumin. These experiments were conducted in triplicate. Paraformaldehyde fixed cultures were then incubated over night with anti-tyrosine hydroxylase (TH) (1:1000, Pel-Freez), anti-NeuN (1:200, Chemicon) or anti-Nurr1 (1: 10,000, Santa Cruz) antibodies in PBS containing 0.5% (TH and NeuN) or 10% (Nurr1) fetal calf serum and 0.3% triton X100. Following rinses, cultures were incubated with biotinylated secondary antibody followed by detection of immuno-staining using the ABC immunoperoxidase kit from Vector. Cells were counted using brightfield microscopy (Nikon Eclipse EM 300). Cell counting was performed independently by two individuals to derive unbiased results.
# Nurr1-/- cortical cells = test: Primary cortical cultures from Nurr1-knock-out (Nurr1-/-) mice, NeuN count; type: cell-based, mouse; conditions: 0.1 μM, three days
# Procedure: (§3) Nurr1^+/− females were mated with Nurr1^+/− males to generate embryo litters of mixed genotypes (25%^+/+, 50%^+/− and 25%^−/−) as previously described (Zetterström et al, Science 1997). Pregnant females were sacrificed and embryos at embryonic stage E15.5 were dissected. Tails were removed for genotyping. Brains were fine-dissected and meninges removed. Both cortices from each embryo were removed and placed in 500 μl culture medium (N2). When all embryos in the litter were dissected, the cortices were triturated by mechanical dissociation using a fire-polished Pasteur pipette. […] To avoid excessive cell death due to the extended dissection period when using gene targeted mice as compared to wild-type rats, 50 μl cell suspension was routinely plated. This generated cultures in the range of 200.000-470.000 cells per well. Six wells were plated per embryo; three were incubated in N2 only and three with N2+0.1 μM LG268. Cells were incubated for three days and thereafter fixed in 4% paraformaldehyde for 30 minutes and rinsed. For detection of neuronal nuclei, NeuN (diluted 1:300, Chemicon) was used in immunohistochemistry where visualization was with the ABC-kit from Vector. Cells were counted using brightfield microscopy (Eclipse E300M).
# cortex cultures = test: Primary cortex cultures, count of Nurr1-positive and non-expressing cells; type: cell-based, rat
# Procedure: as §1
# Nurr1+/+ cortical cells = test: Primary cortical cultures from wild-type (Nurr1+/+) mice, NeuN count; type: cell-based, mouse; conditions: 0.1 μM, three days
# Procedure: as §3
# hippocampal cultures = test: Primary hippocampal cultures, count of Nurr1-positive and non-expressing cells; type: cell-based, rat
# Procedure: as §1
# [3] = test system: primary midbrain cultures; test: BrdU pulse labeling of primary midbrain cultures (proliferation); type: cell-based, rat; conditions: 0.1 μM
# Procedure: as §2
# Bromodeoxyuridine (BrdU) was added in relevant experiments 4-6 hours before fixation. After fixation with 4% paraformaldehyde for 45 minutes, cells were rinsed in PBS. BrdU incorporation was detected by incubating cells with 2 M hydrochloric acid prior to digesting with 0.25% pepsin (Sigma). Following PBS rinses, cells were incubated in blocking solution (0.5% bovine serum albumin, 0.5% Tween-20 in PBS), and thereafter incubated with anti-BrdU antibody (Dako A/S; diluted 1:20 in blocking solution) at 4° C. overnight. Antibody-binding was detected with anti-mouse CY3-conjugated IgG (Jackson ImmunoResearch Labs Inc.). Cells were analyzed using inverted epifluorescent microscopy.
# [4] = test system: RXR (Nurr1-RXR heterodimer); conditions: JEG3, MH100-tk-luc reporter
# Procedure: (§4) Human choriocarcinoma cells, JEG3, were transfected in triplicate in 24-well plates. […] Each well was transfected with 100 ng of the gal4-binding luciferase reporter construct, MH100-tk-luc, 100 ng of CMX-RXR (Perlmann et al. (1995) Genes and Dev. 9: 769-782), and 100 ng of either CMX-gal4-Nurr1 (Perlmann et al. (1995) Genes and Dev. 9: 769-782), or CMX-gal4-Nurr1 dim^−.
# (§5) In reporter assays of conditioned media and 9-cis retinoic acid titration experiments, a CMX-gal4-RAR construct (Perlmann et al. (1995) Genes and Dev. 9: 769-782) was also used. In all experiments, CMX-βgal (200 ng) (Perlmann et al. (1995) Genes and Dev. 9, 769-782) was used as an internal control. Following transfection of JEG3 cells (6 hours post-transfection), calcium precipitate was removed by washing with fresh medium. Tissue explants or conditioned media were then added to the cells. After 24 hours, cells were harvested and assayed for luciferase and reference β-galactosidase activity on a luminometer/photometer.
# Reporter experiments were performed as previously described. […] Briefly, an expression vector encoding a derivative of the orphan-nuclear receptor Nurr1 (GAL4-Nurr1), was cotransfected into JEG3 cells with an expression vector encoding RXR and a reporter expression vector containing GAL4 binding sites in operable linkage with a luciferase reporter gene. […]
# RAR = test: Luciferase reporter assay in JEG3 cells transfected with gal4-RAR; type: cell-based; conditions: JEG3, MH100-tk-luc reporter
# Procedure: as §4, §5
smiles,measurement,setting,value
"CC/C=C\C/C=C\C/C=C\C/C=C\C/C=C\C/C=C\CCC(=O)O [DHA, docosahexanoic acid]",number of NeuN-positive cells (entire neuronal-cell population),[1],do not produce a general increase
same,number of TH-immunoreactive (IR) cells,[2],increased the number of TH-IR cells in a dose-dependent manner; also recorded: efficiently increased the number of dopamine neurons
Cc1cc2c(cc1C1(c3ccc(C(=O)O)cn3)CC1)C(C)(C)CCC2(C)C [LG268],total number of neurons (NeuN immunoreactivity),Nurr1-/- cortical cells,no increase
same,increase in number of Nurr1-positive cells,cortex cultures,39%
same,number of Nurr1 non-expressing cells,cortex cultures,did not increase
same,total number of neurons (NeuN immunoreactivity),Nurr1+/+ cortical cells,significantly increased
same,number of NeuN-positive cells (entire neuronal-cell population),[1],do not produce a general increase
same,efficiency compared to GDNF (TH-IR cells),"[2]; FIG. 12C, comparison of SR11237, LG268 and GDNF",more potent than either SR11237 or GDNF
same,number of TH-immunoreactive (IR) cells,[2],dose-dependent increase; also recorded: efficiently increased the number of dopamine neurons
same,increase in number of Nurr1-positive cells,hippocampal cultures,36%
same,number of Nurr1 non-expressing cells,hippocampal cultures,did not increase
CC1(C)CCC(C)(C)c2cc(C3(c4ccc(C(=O)O)cc4)OCCO3)ccc21 [SR11237],proliferation (BrdU),[3],not due to increased proliferation
same,number of dopamine secreting cells,"[2]; 72 hour incubation, compared to TTNPB, all-trans retinoic acid or no RXR ligand",increased dopamine secreting cells
same,number of TH-immunoreactive (IR) cells,[2],dose-dependent increase
C/C(=C\c1ccc(C(=O)O)cc1)c1ccc2c(c1)C(C)(C)CCC2(C)C [TTNPB],effect on the neurotrophic effect of LG268,[2]; in the presence of LG268,blocks the neurotrophic effect
same,number of TH-immunoreactive (IR) cells,[2],does not increase the number of TH-IR cells
"CC1=C(/C=C/C(C)=C\C=C\C(C)=C\C(=O)O)C(C)(C)CCC1 [9cisRA, 9-cis retinoic acid]",activation of RXR reporter (titration),[4],efficient ligand
same,activation of RAR reporter (titration),RAR,efficient ligand
same,number of TH-IR neurons when combined with RAR antagonist RO,[2]; increasing concentrations combined with R041-5253 (RO),increase with increasing concentrations
same,number of TH-immunoreactive (IR) cells,[2],does not affect the number of TH-IR cells
